Assay results reported in patent US10058587B2, “Peptide composition for cancer treatment by inhibiting TRPV6 calcium channel activity” (priority 2008, dated 2018).
Where no end group is shown, it is not given here.

Columns and labels:
[1] = Degradation rate in human plasma (HPLC); type: in vitro ADME
Protocol: Rat plasma was obtained from blood taken from sacrificed rats (Sprague-Dawley) and placed into heparinized glass vials to prevent clotting. Whole blood was centrifuged at 8000×g for 5 minutes to spin down the cells leaving the plasma as supernatant. Human whole blood samples from healthy humans were taken in lithium-heparinized vacuum tubes. The samples were placed into 2.0 mL microcentrifuge tubes and centrifuged at 8000×g for 5 min. The plasma was carefully separated from red blood cells and used immediately.
Determination of degradation rate of the C-peptides was done by measuring, with the HPLC protocol, the amount of either SorC13 or SorC27 in dosed plasma samples, after time. Sample tubes (500 uL) containing 2 uL of 2 mM Pefabloc were previously prepared for sample delivery SorC13 (1.0 mg) or SorC27 (2.0 mg) were dissolved in 1.0 mL of fresh plasma (37° C.) and placed in an incubating water bath at 37° C. A sample (100 uL) was taken immediately and quenched in sample tubes containing 2 uL of 2 mM Pefabloc, mixed vigorously and immediately frozen at −80° C. This initial sample represented time zero for the run. At successive time intervals of 5 minutes, 100 uL samples were withdrawn, quenched in Pefabloc, mixed, and frozen at −80° C. until analysis.
The rat plasma degradation rate was determined for the plasma from three different rats, while the rate of degradation in human plasma used six separate plasma samples. The data used were the means (±SEM) and were fitted to a simple one-phase exponential decay model to determine the half-life of the two peptides. This also allowed the calculation of a static degradation rate. FIG. 11 is illustrative of the rate at which SorC27 was degraded in human plasma.

human TRPV6b = target: T1, human TRPV6b (Homo sapiens, UniProt Q9H1D0); assay: Whole-cell patch clamp of calcium store operated current (ISOC) through TRPV6 in transfected LnCaP cells; type: cell-based
T1 construct: expressed in transfected cells; host or cells: LnCaP (ATCC CRL-1740), human lymph node prostate cancer cells
T1 sequence (Q9H1D0 41-765 limits assumed): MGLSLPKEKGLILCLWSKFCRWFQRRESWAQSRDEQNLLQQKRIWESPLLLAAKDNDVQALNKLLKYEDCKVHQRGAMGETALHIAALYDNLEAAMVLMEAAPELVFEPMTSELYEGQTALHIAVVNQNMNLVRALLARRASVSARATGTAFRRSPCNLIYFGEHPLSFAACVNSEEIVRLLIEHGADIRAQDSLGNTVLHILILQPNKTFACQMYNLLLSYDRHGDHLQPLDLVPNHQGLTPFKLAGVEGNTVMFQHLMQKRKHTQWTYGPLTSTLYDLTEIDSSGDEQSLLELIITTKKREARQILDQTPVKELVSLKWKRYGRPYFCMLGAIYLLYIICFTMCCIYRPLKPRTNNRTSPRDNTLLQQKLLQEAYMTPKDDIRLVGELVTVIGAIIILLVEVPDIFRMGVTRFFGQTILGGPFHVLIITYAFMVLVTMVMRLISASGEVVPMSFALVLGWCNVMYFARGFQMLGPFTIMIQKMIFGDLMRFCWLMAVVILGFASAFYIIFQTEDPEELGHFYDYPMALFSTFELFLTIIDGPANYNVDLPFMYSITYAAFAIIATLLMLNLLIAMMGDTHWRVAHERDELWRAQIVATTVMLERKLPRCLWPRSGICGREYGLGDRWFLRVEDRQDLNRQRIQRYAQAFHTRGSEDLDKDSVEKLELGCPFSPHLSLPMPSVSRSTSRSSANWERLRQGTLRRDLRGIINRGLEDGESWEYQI
Protocol: An expression vector (pCAGS-IRES-hTRPV6b) (Bodding et al. 2003) containing the nucleotide code for human TRPV6b was transfected into and expressed by human lymph node prostate cancer (LnCaP, ATCC CRL-1740). Patch clamping with whole-cell current acquisition was used to measure the calcium current through this channel. Cells were treated and calcium store operated current (ISOC) was measured with either SorC13 (n=90) or SorC27 (n=30) in a closed-circuit perfusion for 3 min at each of cumulative concentrations of 0 (baseline), 100 nM, 500 nM 1 uM, 30 uM and 100 uM. Washout perfusion was done at 2 mL/min for 3 min. […] Further, both C-peptides are very strong inhibitors of calcium current through the TRPV6 channel with inhibition constants in the 100 nM range.

[2] = Single dose acute intravenous bolus toxicity study with 5-day observation; type: in vivo, CD-1 mice
Protocol: A single dose acute intravenous bolus injection toxicity study followed by a 5-day observation period in CD-1 mice was performed as described below. Three doses of each of SorC13 and SorC27 were used (10, 100 and 500 mg/Kg). Daily cage-side exams for 5 days with hourly exams for the first 4 hrs post injection. As part of the analysis the following assessments were made: body weights prior to dosing and at termination; all animals were necropsied (including preparation of bone marrow smears); organ weights were taken of all animals.
After in vivo i.v. injection into CD1 mice, SorC13 caused a small spike (approximately 25%) in blood pressure in the first 15 min which disappeared by 1 hour.

[3] = system: HEY C2 ovarian cancer cell line; assay: Induction of apoptosis (APO-ONE caspase 3/7) and cell viability (CellTiter Blue); type: cell-based, human; set-up: key to Decline in cell viability: decreased (+); or not (−)
Protocol: HeyC2 was cultured in RPMI 1640 medium supplemented with 1.0 mM sodium pyruvate, 0.01 mg/mL insulin and 10% (v/v) fetal bovine serum.
The levels of apoptotic induction and cell viability were determined by multiplexing the measurements for single samples. CellTiter Blue and APO-ONE assay systems from Promega allows the determination of cell viability correlated to cell number, and induction of apoptosis. This protocol uses a fluorgenic peptide that contains a peptide recognition-sequence for caspase 3 and caspase 7, […] proteolytic enzymes of the apoptosis cascade. The CellTiter Blue reagent was added to wells in a 96-well plate containing cells under test, immediately after addition of peptide solution or vehicle. About 5000 cells were plated into the wells the day before. At the chosen time (Day 1, Day 2 etc.) the fluorescence was measured at 590 nm (emission) after excitation at 560 nm. The caspase 3/7 activity was measured (485 nm Ex/527 nm Em) in the same wells after adding 120 uL of the Apo-ONE reagent, freeze fracturing at −80° C. for 1 hr, and incubating for 1 hr at room temperature.
For this work, the concentrations of SorC13 and SorC27 used were 0 uM, 1 uM, 10 uM and 100 uM. The experiments extended over a 5 to 7 day period. All measurements were done in quadruplicate with both a blank (no cells) and control (vehicle, no peptide) used to correct the test measurements. The time-response data, and the dose-response data were plotted as means±standard error of the mean. Any statistical comparisons were done with the Student's t-test or by ANOVA analysis over the dose course. The level of statistical significance was considered to be the 95% confidence interval (i.e., p≤0.05).

[4] = single i.v. 10, 100 and 500 mg/kg

Sequence: EGKLSSNDTEGGLCKEFLHPSKVDLPR [SorC27]
- binding to plasma proteins ([1]; human plasma): doesn't bind to
- half-life ([1]; human, plasma, 37° C.): 20 min
- IC50 (human TRPV6b): 140 nM
- Kd (human TRPV6b): 140 nM
- Maximum Tolerated Dose in CD-1 mice by single i.v. dose ([2]; 10, 100 and 500 mg/kg doses): No toxic effects
- adverse events over 5-day post-injection observation period [2, 4]: no adverse events
- necropsy changes in major organ systems [2, 4]: no significant changes in all major organ systems
- Apoptosis Index (1 = no effect) ([3]; Day 6, SorC27 100 uM): 1.4
- Apoptosis Index (1 = no effect) ([3]; Day 7, SorC27 10 uM): 2.2
- Apoptosis Index (1 = no effect) ([3]; Day 7, SorC27 100 uM): 2.8
- Decline in cell viability ([3]; SorC27): +
